Among the data in US9115134B2, “6-triazolopyridazine sulfanyl benzothiazole derivatives as MET inhibitors” (SANOFI, priority 2007, dated 2015) are IC50 values, retold here.

The structures appear in SMILES notation.

As a reminder, the IC50 is the concentration that gives 50% inhibition.

Assay [1] concerns the target T1, MET (Homo sapiens, UniProt P08581). The assay is described as follows: Test A: HTRF MET assay in 96-well format. To be noted: MET 5 nM, 10 μM ATP. Also on record: The His-Tev-MET (956-1390) recombinant DNA in pFastBac (Invitrogen) is transfected into insect cells; His tag (N, cleaved yes); TEV cleavage site (N); made in house; host or cells: SF21 insect cells (baculovirus, pFastBac). Format: biochemical. As to the method:
I) Expression and Purification of MET, Cytoplasmic Domain
The His-Tev-MET (956-1390) recombinant DNA in pFastBac (Invitrogen) is transfected into insect cells, and after several viral amplification steps, the final baculovirus stock is tested for the expression of the protein of interest.
After infection for 72 h at 27° C. with the recombinant virus, the SF21 cell cultures are harvested by centrifugation and the cell pellets are stored at −80° C.
The cell pellets are resuspended in lysis buffer (buffer A [50 mM HEPES, pH 7.5, 250 mM NaCl, 10% glycerol, 1 mM TECP]; +cocktail of protease inhibitors, Roche Diagnostics, without EDTA, ref 1873580), stirred at 4° C. until the mixture is homogeneous and then lyzed mechanically using a “Dounce” type apparatus.
After centrifugation, the lysis supernatant is incubated for 2 h at 4° C. with nickel chelate resin (His-Trap 6 Fast Flow™, GE HealthCare). After washing with 20 volumes of buffer A, the suspension is packed into a column, and the proteins are eluted with a gradient of buffer B ([…]+290 mM imidazole).
The fractions containing the protein of interest for the purpose of electrophoretic analysis (SDS PAGE) are combined, concentrated by ultrafiltration (10 kDa cut-off) and injected onto an exclusion chromatography column (Superdex™ 200, GE HealthCare) equilibrated in buffer A.
After enzymatic cleavage of the histidine tag, the protein is reinjected onto a new IMAC nickel chelate chromatography column (His-Trap 6 Fast Flow™, GE HealthCare) equilibrated in buffer A. The fractions eluted with a gradient of buffer B and containing the protein of interest after electrophoresis (SDS PAGE) are finally combined and conserved at −80° C.
For the production of autophosphorylated protein, the previous fractions are incubated for 1 h at ambient temperature after the addition of 2 mM ATP, 2 mM MgCl2, and 4 mM Na3VO4. After the reaction has been stopped with 5 mM of EDTA, the reaction mixture is injected onto a HiPrep desalifying column (GE HealthCare) preequilibrated in buffer A+4 mM Na3VO4, and the fractions containing the protein of interest (SDS PAGE analysis) are combined and stored at −80° C. The degree of phosphorylation is verified by mass spectrometry (LC-MS) and by peptide mapping.
• A) Test A: HTRF MET assay in 96-well format
MET at a final concentration of 5 nM is incubated in a final volume of 50 μl of enzymatic reaction in the presence of the test molecule (for a final concentration range of from 0.17 nM to 10 μM, 3% DMSO final concentration) in 10 mM MOPS buffer, pH 7.4, 1 mM DTT, 0.01% Tween 20. The reaction is initiated with the substrate solution to obtain final concentrations of 1 μg/ml poly-(GAT), 10 μM ATP and 5 mM MgCl2. After incubation for 10 min at ambient temperature, the reaction is stopped with a 30 μl mix so as to obtain a final solution of 50 mM Hepes pH 7.5, 500 mM potassium fluoride, 0.1% BSA and 133 mM EDTA in the presence of 80 ng of streptavidin 61SAXLB Cis-Bio Int. and 18 ng of anti-phosphotyrosine Mab PT66-Europium Cryptate per well. After incubation for 2 hours at ambient temperature, the reading is taken at 2 wavelengths, 620 nm and 665 nm, on a reader for the TRACE/HTRF technique and the % inhibition is calculated from the 665/620 ratios.
A general note: TR-FRET usually uses a lanthanide donor and a delayed reading to cut background.
Target sequence in this assay (P08581 956-1390): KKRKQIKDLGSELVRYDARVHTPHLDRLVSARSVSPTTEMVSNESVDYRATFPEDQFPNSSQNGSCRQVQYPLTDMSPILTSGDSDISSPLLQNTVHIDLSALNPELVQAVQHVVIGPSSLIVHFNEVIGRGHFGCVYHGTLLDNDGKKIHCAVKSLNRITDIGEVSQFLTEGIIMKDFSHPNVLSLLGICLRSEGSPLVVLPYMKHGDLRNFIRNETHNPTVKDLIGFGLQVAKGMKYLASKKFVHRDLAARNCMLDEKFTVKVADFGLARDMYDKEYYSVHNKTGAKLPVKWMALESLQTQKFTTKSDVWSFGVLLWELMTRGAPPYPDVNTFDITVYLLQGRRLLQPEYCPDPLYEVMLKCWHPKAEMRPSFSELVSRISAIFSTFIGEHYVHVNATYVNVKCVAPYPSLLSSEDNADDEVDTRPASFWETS

The test system of assay [2] is HCT116 cells, MKN45 cells. Put plainly: Test C: Measurement of cell proliferation by 14C-thymidine pulse. Format: cell-based. To be noted: 14C-thymidine incorporation, 96 h of treatment; cell line not given. On the procedure: (§1) Stop the reaction with 100 μl of stop solution. Read without delay at […], 0.1 second on Wallac Victor plate reader. • C) Test C: Measurement of cell proliferation by ^14c-thymidine pulse
The cells are seeded into Cytostar 96-well plates in 180 μl for 4 hours at 37° C. and 5% CO2: HCT116 cells at a rate of 2500 cells per well in DMEM medium+10% foetal calf serum+1% L-glutamine and MKN45 cells at a rate of 7500 cells per well in RPMI medium+10% foetal calf serum+1% L-glutamine. After these 4 hours of incubation, the products are added in 10 μl as a 20-fold concentrated solution according to the dilution method mentioned for the ELISA. The products are tested at 10 concentrations in duplicate from 10 000 nM to 0.3 nM with an increment of 3.
After treatment for 72 h, add 10 μl of ^14C-thymidine at 10 μCi/ml to obtain 0.1 μCi per well. The ^14C-thymidine incorporation is measured on a Micro-Beta machine (Perkin-Elmer) after 24 hours of pulse and 96 h of treatment.
All the steps of the assay are automated on BIOMEK 2000 or TECAN stations.
Background: Incorporation of labelled thymidine or its analogues reports DNA synthesis.

The target of assay [3] is T1, MET. Put plainly: Test B: Inhibition of the autophosphorylation of MET; ELISA technique (pppY1230,1234,1235) in MKN45 cells. To be noted: 1 h treatment, PhosphoMET ELISA. The format is cell-based. On the set-up: Seed MKN45 cells into 96-well plates (Cell coat BD polylysine) at 20 000 cells/well; endogenous in cells; host or cells: MKN45 cells. On the procedure:
Leave to adhere for 24 hours in an incubator.
The cells are treated the day after seeding with the products at 6 concentrations in duplicate for 1 h. At least 3 control wells are treated with the same final amount of DMSO.
Product dilution: Stock at 10 mM in pure DMSO—range from 10 mM to 30 μM with an increment of 3 in pure DMSO—intermediate 1/50 dilutions in culture medium and then removal of 10 μl added directly to the cells (200 μl): final range of 10 000 to 30 nM.
At the end of the incubation, carefully remove the supernatant and rinse with 200 μl of PBS. Next, place 100 μl of lysis buffer directly in the wells on ice and incubate at 4° C. for 30 minutes. Lysis buffer: 10 mM Tris HCl, pH7.4, 100 mM NaCl, 1 mM EDTA, 1 mM EGTA, 1% Triton X-100, 10% glycerol, 0.1% SDS, 0.5% deoxycholate, 20 mM NaF, 2 mM Na3VO4, 1 mM PMSF and cocktail of antiproteases.
The 100 μl of lysates are transferred into a V-bottomed polypropylene plate and the ELISA is performed immediately, or the plate is frozen at −80° C. • b) PhosphoMET ELISA BioSource Kit KH00281
Into each well of the kit plate, add 70 μl of kit dilution buffer+30 μL of cell lysate or 30 μl of lysis buffer for the blanks. Incubate for 2 h with gentle agitation at ambient temperature.
Rinse the wells 4 times with 400 μl of kit washing buffer. Incubate with 100 μl of anti-phospho MET antibody for 1 hour at ambient temperature.
Rinse the wells 4 times with 400 μl of kit washing buffer. Incubate with 100 μl of anti-rabbit HRP antibody for 30 minutes at ambient temperature (except for the wells of chromogen alone).
Rinse the wells 4 times with 400 μl of kit washing buffer. Introduce 100 μL of chromogen and incubate for 30 minutes in the dark at ambient temperature.
as §1
Target sequence in this assay (P08581 25-1390): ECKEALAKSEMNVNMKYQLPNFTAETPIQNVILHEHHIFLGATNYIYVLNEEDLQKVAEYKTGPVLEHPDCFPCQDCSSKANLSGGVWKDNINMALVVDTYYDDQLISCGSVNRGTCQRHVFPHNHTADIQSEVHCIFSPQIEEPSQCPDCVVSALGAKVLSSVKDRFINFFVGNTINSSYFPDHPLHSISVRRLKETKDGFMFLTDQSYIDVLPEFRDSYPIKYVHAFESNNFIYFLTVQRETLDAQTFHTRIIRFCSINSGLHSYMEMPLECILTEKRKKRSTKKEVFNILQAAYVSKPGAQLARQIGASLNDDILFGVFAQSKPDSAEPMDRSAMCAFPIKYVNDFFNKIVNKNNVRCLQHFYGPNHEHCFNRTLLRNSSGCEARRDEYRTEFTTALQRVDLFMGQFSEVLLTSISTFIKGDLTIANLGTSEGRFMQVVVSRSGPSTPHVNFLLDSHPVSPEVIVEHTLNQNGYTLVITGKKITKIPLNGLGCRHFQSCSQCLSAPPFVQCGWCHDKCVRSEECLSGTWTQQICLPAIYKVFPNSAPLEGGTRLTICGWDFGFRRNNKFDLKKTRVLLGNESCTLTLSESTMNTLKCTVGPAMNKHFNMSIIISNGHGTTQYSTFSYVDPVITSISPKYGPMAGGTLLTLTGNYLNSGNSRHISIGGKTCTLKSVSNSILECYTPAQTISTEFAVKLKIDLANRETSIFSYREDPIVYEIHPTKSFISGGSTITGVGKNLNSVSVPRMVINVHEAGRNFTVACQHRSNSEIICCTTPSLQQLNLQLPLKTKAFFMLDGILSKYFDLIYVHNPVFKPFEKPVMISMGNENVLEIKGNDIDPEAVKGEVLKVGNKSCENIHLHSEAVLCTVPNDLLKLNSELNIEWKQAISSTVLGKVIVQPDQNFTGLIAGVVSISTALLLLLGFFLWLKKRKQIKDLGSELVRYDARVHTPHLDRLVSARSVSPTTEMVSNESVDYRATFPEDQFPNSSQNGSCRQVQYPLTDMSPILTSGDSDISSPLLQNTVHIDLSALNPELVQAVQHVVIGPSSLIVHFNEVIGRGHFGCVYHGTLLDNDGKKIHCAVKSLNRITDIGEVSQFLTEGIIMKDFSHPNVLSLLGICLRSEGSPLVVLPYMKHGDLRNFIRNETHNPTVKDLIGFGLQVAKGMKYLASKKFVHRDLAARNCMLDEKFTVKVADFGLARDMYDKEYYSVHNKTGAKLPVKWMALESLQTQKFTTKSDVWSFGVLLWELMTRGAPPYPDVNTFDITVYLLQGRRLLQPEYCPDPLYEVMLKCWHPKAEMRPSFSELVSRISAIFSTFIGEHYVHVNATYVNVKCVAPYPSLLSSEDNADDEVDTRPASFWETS
For orientation: An ELISA detects its analyte on a solid surface through an enzyme-linked reagent.

Consider `COC(=O)Nc1nc2ccc(Sc3nnc4ccc(-c5ccc(F)cc5)nn34)cc2s1` [Example 1, Methyl (6-{[6-(4-fluorophenyl)[1,2,4]triazolo[4,3-b]pyridazin-3-yl]sulphanyl}-1,3-benzothiazol-2-yl)carbamate], for which the IC50 was less than 100 nM on MET [1], less than 1000 nM in assay [2] and less than 100 nM at MET [3].

On to `CC(C)(C)OC(=O)Nc1nc2ccc(Sc3nnc4ccc(-c5ccc(F)cc5)nn34)cc2s1` [Example 2, 1,1-Dimethylethyl (6-{[6-(4-fluorophenyl)[1,2,4]triazolo[4,3-b]pyridazin-3-yl]sulphanyl}-1,3-benzothiazol-2-yl)carbamate], for which the half-inhibitory concentration (IC50) was less than 100 nM at MET [1], less than 1000 nM in assay [2] and 100 to 500 nM on MET [3].

As for `Nc1nc2ccc(Sc3nnc4ccc(-c5ccc(F)cc5)nn34)cc2s1` [Example 3, 6-{[6-(4-Fluorophenyl)[1,2,4]triazolo[4,3-b]pyridazin-3-yl]sulphanyl}-1,3-benzothiazol-2-amine], the concentration for half-maximal inhibition (IC50) was less than 100 nM on MET [1], less than 1000 nM in assay [2] and less than 100 nM at MET [3].

As to `COC(=O)Nc1nc2ccc(Sc3nnc4ccc(-c5ccc(F)cc5)nn34)cc2[nH]1` [Example 4, Methyl (6-{[6-(4-fluorophenyl)[1,2,4]triazolo[4,3-b]pyridazin-3-yl]sulphanyl}-1H-benzimidazol-2-yl)carbamate], the half-maximal inhibitory concentration (IC50) was less than 100 nM on MET [1], less than 1000 nM in assay [2] and less than 100 nM against MET [3].

In the case of `COC(=O)Nc1nc2ccc(Sc3nnc4n3N=C(c3ccc(F)cc3)CC4)cc2[nH]1` [Example 5, Methyl (6-{[6-(4-fluorophenyl)-7,8-dihydro[1,2,4]triazolo[4,3-b]pyridazin-3-yl]sulphanyl}-1H-benzimidazol-2-yl)carbamate], the IC50 on MET [1] is less than 100 nM; in assay [2] it was less than 1000 nM; against MET [3], 100 to 500 nM.

Turning to `O=C(NCCN1CCOCC1)Nc1nc2ccc(Sc3nnc4ccc(-c5ccc(F)cc5)nn34)cc2[nH]1` [Example 6, 1-(6-{[6-(4-Fluorophenyl)[1,2,4]triazolo[4,3-b]pyridazin-3-yl]sulphanyl}-1H-benzimidazol-2-yl)-3-(2-morpholin-4-ylethyl)urea], the IC50 at MET [1] is less than 100 nM; in assay [2], less than 1000 nM; against MET [3] it was less than 100 nM.

For the compound `Nc1nc2ccc(Sc3nnc4ccc(-c5ccc(F)cc5)nn34)cc2[nH]1` [Example 7, 6-{[6-(4-Fluorophenyl)[1,2,4]triazolo[4,3-b]pyridazin-3-yl]sulphanyl}-1H-benzimidazol-2-amine], the IC50 on MET [1] is less than 100 nM; in assay [2], less than 1000 nM; against MET [3], 100 to 500 nM.

For `Nc1nc2ccc(Sc3ccc(C4=Nn5c(nnc5Sc5ccc6nc(N)sc6c5)CC4)cc3)cc2s1` [Example 8, 6-[(4-{3-[(2-amino-1,3-benzothiazol-6-yl)sulphanyl]-7,8-dihydro[1,2,4]triazolo-[4,3-b]pyridazin-6-yl}phenyl)sulphanyl]-1,3-benzothiazol-2-amine], the IC50 was less than 100 nM on MET [1], less than 10000 nM in assay [2] and greater than 500 nM against MET [3].

In the case of `O=C(NCCN1CCOCC1)Nc1nc2ccc(Sc3nnc4ccc(-c5ccc(F)cc5)nn34)cc2s1` [Example 9, 1-(6-{[6-(4-Fluorophenyl)[1,2,4]triazolo[4,3-b]pyridazin-3-yl]sulphanyl}-1,3-benzothiazol-2-yl)-3-(2-morpholin-4-ylethyl)urea], the IC50 at MET [1] is less than 100 nM; in assay [2] it was less than 1000 nM; against MET [3], less than 100 nM.

As to `O=C(NCCN1CCOCC1)Nc1nc2ccc(Sc3nnc4cccnn34)cc2s1` [Example 10, 1-(2-Morpholin-4-ylethyl)-3-[6-([1,2,4]triazolo[4,3-b]pyridazin-3-ylsulphanyl)-1,3-benzothiazol-2-yl]urea], the IC50 on MET [1] was less than 100 nM; in assay [2] it was less than 1000 nM; against MET [3], less than 100 nM.

In the case of `C[C@@H]1CN(CCNC(=O)Nc2nc3ccc(Sc4nnc5ccc(-c6ccc(F)cc6)nn45)cc3s2)C[C@H](C)O1` [Example 11, 1-{2-[(2R,6S)-2,6-dimethylmorpholin-4-yl]ethyl}-3-(6-{[6-(4-fluorophenyl)-[1,2,4]triazolo[4,3-b]pyridazin-3-yl]sulphanyl}-1,3-benzothiazol-2-yl)urea], the IC50 was less than 100 nM at MET [1], less than 1000 nM in assay [2] and less than 100 nM on MET [3].

For the compound `O=C(Nc1nc2ccc(Sc3nnc4ccc(-c5ccc(F)cc5)nn34)cc2s1)OCCN1CCOCC1` [Example 12, 2-Morpholin-4-ylethyl (6-{[6-(4-fluorophenyl)[1,2,4]triazolo[4,3-b]pyridazin-3-yl]sulphanyl}-1,3-benzothiazol-2-yl)carbamate], the 50% inhibitory concentration (IC50) at MET [1] is less than 100 nM; in assay [2], less than 1000 nM; on MET [3], less than 100 nM.
